What was measured:
[1] = test system: p21 induction in HCT 116 cells; experiment: p21 induction in cells (In-Cell Western, p21/GAPDH ratio); type: cell-based; details: Homo sapiens, HCT-116, 24 h, 24 h compound incubation, read-out: P21_EC50
Summary of the method: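 p21 and GAPDH signals quantified by In-Cell Western after 24 h compound exposure of HCT 116 cells (11 concentrations, 2-fold steps, usual top 10 μM). Percent activation from p21/GAPDH ratio relative to DMSO (low) and internal WRN inhibitor (high) controls; curve fit gave EC50.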

[2] = molecular target: T1, human Werner helicase (WRN, Uniprot Q14191, amino acids 517-1235 with L1074F point mutation; WRN-BV08) (Homo sapiens, UniProt Q14191, L1074F); experiment: WRN (BV08) ADP-Glo assay; type: biochemical; details: WRN-BV08 (aa 517-1235, L1074F); read-out: ADP-Glo_hWRN_IC50
T1 construct: Uniprot Q14191, amino acids 517-1235 with L1074F point mutation; 8xHis (C, cleaved yes); TEV cleavage site (ENLYFQG) (C, cleaved yes); made in house; host or cells: Sf9 insect cells (baculovirus, pFastBac)
Summary of the method: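 ADP formed by untagged WRN helicase fragment (aa 517-1235, L1074F; 0.15 nM final) on 0.1 nM DNA duplex with […], 60 min at 25 °C after 15 min compound preincubation, pH 7.5 Bicine buffer. Luminescent ADP-Glo readout; IC50 from 4-parameter fit of % inhibition.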

T1 sequence (Q14191 with tags, fused parts or gaps L1074F): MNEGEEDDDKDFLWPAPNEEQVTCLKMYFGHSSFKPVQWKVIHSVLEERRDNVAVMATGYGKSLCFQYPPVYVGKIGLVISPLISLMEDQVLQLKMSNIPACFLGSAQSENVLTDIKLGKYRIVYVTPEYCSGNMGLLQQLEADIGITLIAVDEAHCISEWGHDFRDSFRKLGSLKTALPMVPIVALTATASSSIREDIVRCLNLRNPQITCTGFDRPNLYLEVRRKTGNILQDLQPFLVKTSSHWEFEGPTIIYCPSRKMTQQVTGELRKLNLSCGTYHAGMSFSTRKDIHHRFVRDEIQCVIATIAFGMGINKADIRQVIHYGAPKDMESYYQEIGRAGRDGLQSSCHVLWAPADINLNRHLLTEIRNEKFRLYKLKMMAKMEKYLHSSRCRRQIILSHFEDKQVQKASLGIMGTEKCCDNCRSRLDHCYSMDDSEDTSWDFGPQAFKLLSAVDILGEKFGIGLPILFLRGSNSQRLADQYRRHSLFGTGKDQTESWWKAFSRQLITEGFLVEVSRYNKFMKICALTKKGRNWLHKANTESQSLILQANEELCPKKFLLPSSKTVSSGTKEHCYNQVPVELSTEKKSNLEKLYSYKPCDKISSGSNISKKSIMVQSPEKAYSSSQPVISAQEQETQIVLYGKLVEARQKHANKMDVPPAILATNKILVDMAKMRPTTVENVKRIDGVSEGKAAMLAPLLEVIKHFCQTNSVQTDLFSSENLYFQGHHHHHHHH

CCc1c(N2CCN(C(=O)c3cccc4ncoc34)[C@H]3CC[C@@H]32)c(=O)n2nc(C3=CCOCC3)nc2n1CC(=O)NC12CC(C(C)C)(C1)C2 [I-214, 2-(6-((1S,6S)-5-(benzo[d]oxazole-7-carbonyl)-2,5-diazabicyclo[4.2.0]octan-2-yl)-2-(3,6-dihydro-2H-pyran-4-yl)-5-ethyl-7-oxo-[1,2,4]triazolo[1,5-a]pyrimidin-4(7H)-yl)-N-(3-isopropylbicyclo[1.1.1]pentan-1-yl)acetamide]
EC50 [1]: 500 to 2000 nM | IC50 [2]: 5 to 50 nM

CCc1c(N2CCN(C(=O)c3ncnc(C)c3O)[C@H]3CC[C@@H]32)c(=O)c2nc(N(C)C)cnc2n1CC(=O)NC12CC(OC(F)(F)F)(C1)C2 [I-237, 2-(2-(dimethylamino)-6-ethyl-7-((1S,6S)-5-(5-hydroxy-6-methylpyrimidine-4-carbonyl)-2,5-diazabicyclo[4.2.0]octan-2-yl)-8-oxopyrido[2,3-b]pyrazin-5(8H)-yl)-N-(3-(trifluoromethoxy)bicyclo[1.1.1]pentan-1-yl)acetamide]
EC50 [1]: 2000 to 5000 nM | IC50 [2]: 5 to 50 nM

CCc1c(N2CCN(C(=O)c3c(O)ccc4ncoc34)CC2)c(=O)c2sc(-c3ccnc(OC)c3)nc2n1CC(=O)NC12CC(C(F)(F)F)(C1)C2 [I-37, 2-(5-ethyl-6-(4-(6-hydroxybenzo[d]oxazole-7-carbonyl)piperazin-1-yl)-2-(2-methoxypyridin-4-yl)-7-oxothiazolo[4,5-b]pyridin-4(7H)-yl)-N-(3-(trifluoromethyl)bicyclo[1.1.1]pentan-1-yl)acetamide]
EC50 [1]: 500 to 2000 nM | IC50 [2]: 5 to 50 nM

CCc1c(N2CCN(C(=O)c3c(O)ccc4ncoc34)CC2)c(=O)n2nc(-c3ccnc(OC)c3)nc2n1CC(=O)NC12COC(C(F)(F)F)(C1)C2 [I-44, 2-(5-ethyl-6-(4-(6-hydroxybenzo[d]oxazole-7-carbonyl)piperazin-1-yl)-2-(2-methoxypyridin-4-yl)-7-oxo-[1,2,4]triazolo[1,5-a]pyrimidin-4(7H)-yl)-N-(1-(trifluoromethyl)-2-oxabicyclo[2.1.1]hexan-4-yl)acetamide]
EC50 [1]: 2000 to 5000 nM | IC50 [2]: 5 to 50 nM

CCc1c(N2CCN(C(=O)c3cnn(C)c3)CC2)c(=O)n2nc(C3=CCOCC3)nc2n1CC(=O)NC1CC2(C1)CC2F (stereo not shown) [I-249, 2-(2-(3,6-dihydro-2H-pyran-4-yl)-5-ethyl-6-(4-(1-methyl-1H-pyrazole-4-carbonyl)piperazin-1-yl)-7-oxo-[1,2,4]triazolo[1,5-a]pyrimidin-4(7H)-yl)-N-(1-fluorospiro[2.3]hexan-5-yl)acetamide]
EC50 [1]: > 5000 nM | IC50 [2]: 100 to 500 nM

CCc1c(N2CCN(C(=O)c3c(OC)cccc3B(O)O)[C@H]3CC[C@@H]32)c(=O)c2nn(C3=CCOCC3)nc2n1CC(=O)NC12CC(C(C)C)(C1)C2 [I-204, (2-((1S,6S)-5-(2-(3,6-dihydro-2H-pyran-4-yl)-5-ethyl-4-(2-((3-isopropylbicyclo[1.1.1]pentan-1-yl)amino)-2-oxoethyl)-7-oxo-4,7-dihydro-2H-[1,2,3]triazolo[4,5-b]pyridin-6-yl)-2,5-diazabicyclo[4.2.0]octane-2-carbonyl)-3-methoxyphenyl)boronic acid]
EC50 [1]: ≤ 500 nM | IC50 [2]: 5 to 50 nM

CCc1c(N2CCN(C(=O)c3c(O)ccc4ncoc34)CC2)c(=O)n2nc(-c3ccnc(OC)c3)nc2n1CC(=O)NC12CC(C(F)(F)C(F)(F)F)(C1)C2 [I-38, 2-(5-ethyl-6-(4-(6-hydroxybenzo[d]oxazole-7-carbonyl)piperazin-1-yl)-2-(2-methoxypyridin-4-yl)-7-oxo-[1,2,4]triazolo[1,5-a]pyrimidin-4(7H)-yl)-N-(3-(perfluoroethyl)bicyclo[1.1.1]pentan-1-yl)acetamide]
EC50 [1]: ≤ 500 nM | IC50 [2]: 5 to 50 nM

CCc1c(N2CCN(C(=O)c3c(O)ccc4ncoc34)[C@H]3CC[C@@H]32)c(=O)c2nc(N(C)C)cnc2n1CC(=O)NC12CC(C(C)C)(C1)C2 [I-218, 2-(2-(dimethylamino)-6-ethyl-7-((1S,6S)-5-(6-hydroxybenzo[d]oxazole-7-carbonyl)-2,5-diazabicyclo[4.2.0]octan-2-yl)-8-oxopyrido[2,3-b]pyrazin-5(8H)-yl)-N-(3-isopropylbicyclo[1.1.1]pentan-1-yl)acetamide]
EC50 [1]: 500 to 2000 nM | IC50 [2]: 5 to 50 nM

CCc1c(N2CCN(C(=O)c3c(O)ccc4ncoc34)CC2)c(=O)n2nc(C3=CCOCC3)nc2n1CC(=O)NC12CC(C(C)C)(C1)C2 [I-42, 2-(2-(3,6-dihydro-2H-pyran-4-yl)-5-ethyl-6-(4-(6-hydroxybenzo[d]oxazole-7-carbonyl)piperazin-1-yl)-7-oxo-[1,2,4]triazolo[1,5-a]pyrimidin-4(7H)-yl)-N-(3-isopropylbicyclo[1.1.1]pentan-1-yl)acetamide]
EC50 [1]: ≤ 500 nM | IC50 [2]: 5 to 50 nM

CCc1c(N2CCN(C(=O)c3ncnc(C)c3O)C(C)(C)C2)c(=O)c2nn(-c3ccnc(OC)c3)nc2n1CC(=O)NC12CC(C3CC3)(C1)C2 [I-228, N-(3-cyclopropylbicyclo[1.1.1]pentan-1-yl)-2-(5-ethyl-6-(4-(5-hydroxy-6-methylpyrimidine-4-carbonyl)-3,3-dimethylpiperazin-1-yl)-2-(2-methoxypyridin-4-yl)-7-oxo-2,7-dihydro-4H-[1,2,3]triazolo[4,5-b]pyridin-4-yl)acetamide]
EC50 [1]: 500 to 2000 nM | IC50 [2]: 5 to 50 nM

CCc1c(N2CCN(C(=O)c3ncnc(C)c3O)[C@H]3CC[C@@H]32)c(=O)n2nc(-c3ccnc(OC)c3)nc2n1CC(=O)NC12CC(C(F)(F)F)(C1)C2 [I-48, 2-(5-ethyl-6-((1S,6S)-5-(5-hydroxy-6-methylpyrimidine-4-carbonyl)-2,5-diazabicyclo[4.2.0]octan-2-yl)-2-(2-methoxypyridin-4-yl)-7-oxo-[1,2,4]triazolo[1,5-a]pyrimidin-4(7H)-yl)-N-(3-(trifluoromethyl)bicyclo[1.1.1]pentan-1-yl)acetamide]
EC50 [1]: ≤ 500 nM | IC50 [2]: 5 to 50 nM

CCc1c(N2CCN(C(=O)c3cnn(C)c3)CC2)c(=O)n2nc(-c3ccnc(OC)c3)nc2n1CC(=O)NC1Cc2ccc(F)cc2C1 (stereo not shown) [I-246, 2-(5-ethyl-2-(2-methoxypyridin-4-yl)-6-(4-(1-methyl-1H-pyrazole-4-carbonyl)piperazin-1-yl)-7-oxo-[1,2,4]triazolo[1,5-a]pyrimidin-4(7H)-yl)-N-(5-fluoro-2,3-dihydro-1H-inden-2-yl)acetamide]
EC50 [1]: > 5000 nM | IC50 [2]: 100 to 500 nM

CCc1c(N2CCN(C(=O)c3ncnc(C)c3O)[C@H]3CC[C@@H]32)c(=O)c2nc(N(C)C)cnc2n1CC(=O)NC12CC(C3CCC3)(C1)C2 [I-226, N-(3-cyclobutylbicyclo[1.1.1]pentan-1-yl)-2-(2-(dimethylamino)-6-ethyl-7-((1S,6S)-5-(5-hydroxy-6-methylpyrimidine-4-carbonyl)-2,5-diazabicyclo[4.2.0]octan-2-yl)-8-oxopyrido[2,3-b]pyrazin-5(8H)-yl)acetamide]
EC50 [1]: ≤ 500 nM | IC50 [2]: 5 to 50 nM

CCc1c(N2CCN(C(=O)c3ncc4c(c3O)CCO4)CC2)c(=O)n2nc(C3=CCOCC3)nc2n1CC(=O)NC12CC(CC)(C1)C2 [I-14, 2-(2-(3,6-dihydro-2H-pyran-4-yl)-5-ethyl-6-(4-(4-hydroxy-2,3-dihydrofuro[2,3-c]pyridine-5-carbonyl)piperazin-1-yl)-7-oxo-[1,2,4]triazolo[1,5-a]pyrimidin-4(7H)-yl)-N-(3-ethylbicyclo[1.1.1]pentan-1-yl)acetamide]
EC50 [1]: 500 to 2000 nM | IC50 [2]: 5 to 50 nM
